Source: paper PMC5237709 (Acta Pharmaceutica Sinica. B, 2016)

How the values were obtained:
[1] = biological target: Hsp90 ATPase (Saccharomyces cerevisiae, UniProt P02829); assay: Hsp90 ATPase activity assay; assay type: biochemical, Yeast
[2] = biological target: T1, C-Hsp90 (Saccharomyces cerevisiae, UniProt P02829); assay: Fluorescence quenching titration of C-terminal domain of Hsp90; assay type: binding, Yeast; details: C-Hsp90 (629–732)
T1 sequence (P02829 608-709): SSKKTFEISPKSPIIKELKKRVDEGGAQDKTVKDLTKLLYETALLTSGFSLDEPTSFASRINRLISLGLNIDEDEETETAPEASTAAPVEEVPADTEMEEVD

[3] = biological target: M-Hsp90 (Saccharomyces cerevisiae, UniProt P02829); assay: Fluorescence quenching titration of middle domain of Hsp90; assay type: binding, Yeast; details: M-Hsp90 (272–617)
[4] = biological target: N-Hsp90 (Saccharomyces cerevisiae, UniProt P02829); assay: Fluorescence quenching titration of N-terminal domain of Hsp90; assay type: binding, Yeast; details: N-Hsp90 (1–236)
Chain of N-Hsp90 (P02829 1-223): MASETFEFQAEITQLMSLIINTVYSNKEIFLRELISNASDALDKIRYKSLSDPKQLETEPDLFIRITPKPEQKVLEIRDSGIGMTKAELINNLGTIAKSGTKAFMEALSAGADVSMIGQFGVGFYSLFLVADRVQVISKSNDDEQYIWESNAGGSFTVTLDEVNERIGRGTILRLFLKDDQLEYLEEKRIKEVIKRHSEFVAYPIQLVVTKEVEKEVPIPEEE

Chain of Hsp90 ATPase (P02829 whole entry, the tested form may be a part): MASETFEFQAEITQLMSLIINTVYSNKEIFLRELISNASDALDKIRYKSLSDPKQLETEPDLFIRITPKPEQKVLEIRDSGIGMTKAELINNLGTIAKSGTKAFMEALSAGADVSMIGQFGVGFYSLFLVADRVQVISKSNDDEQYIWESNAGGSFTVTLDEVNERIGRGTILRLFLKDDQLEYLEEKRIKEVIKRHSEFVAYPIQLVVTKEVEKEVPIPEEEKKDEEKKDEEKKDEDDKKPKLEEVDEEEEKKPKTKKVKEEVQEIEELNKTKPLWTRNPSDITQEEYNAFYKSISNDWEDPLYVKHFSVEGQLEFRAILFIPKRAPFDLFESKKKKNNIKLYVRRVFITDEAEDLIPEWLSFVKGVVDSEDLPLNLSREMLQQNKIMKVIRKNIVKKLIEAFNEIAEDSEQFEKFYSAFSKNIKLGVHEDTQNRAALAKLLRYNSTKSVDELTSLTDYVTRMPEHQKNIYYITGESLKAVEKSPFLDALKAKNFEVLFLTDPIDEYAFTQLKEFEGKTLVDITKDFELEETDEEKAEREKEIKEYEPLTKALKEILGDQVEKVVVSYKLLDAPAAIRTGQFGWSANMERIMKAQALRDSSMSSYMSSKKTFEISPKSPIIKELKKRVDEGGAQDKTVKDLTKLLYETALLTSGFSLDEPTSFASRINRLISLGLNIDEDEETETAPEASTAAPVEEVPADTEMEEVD
Chain of M-Hsp90 (P02829 252-596): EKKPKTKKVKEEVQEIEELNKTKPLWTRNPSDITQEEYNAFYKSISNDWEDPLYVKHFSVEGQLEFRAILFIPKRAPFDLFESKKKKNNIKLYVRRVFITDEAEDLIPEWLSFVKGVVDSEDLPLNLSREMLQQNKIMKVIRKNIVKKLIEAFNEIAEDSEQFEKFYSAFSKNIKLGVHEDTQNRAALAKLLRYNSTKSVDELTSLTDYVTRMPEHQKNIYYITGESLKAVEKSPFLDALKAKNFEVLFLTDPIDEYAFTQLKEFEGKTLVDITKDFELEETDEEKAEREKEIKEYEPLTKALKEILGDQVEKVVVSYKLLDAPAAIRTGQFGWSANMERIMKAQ

COC1=C2C[C@@H](C)C[C@H](OC)[C@H](O)[C@@H](C)/C=C(\C)[C@H](OC(N)=O)[C@@H](OC)/C=C\C=C(/C)C(=O)NC(=CC1=O)C2=O [GA, Geldanamycin]
Inhibition of the ATPase activity of Hsp90 (in words) [1]: dose-dependent inhibition | Fmax [2]: 67.91±0.63 | Fmax [3]: 158.20±1.68 | Fmax [4]: 221.22±4.91
